Measured values taken from the supplement of paper PMC10307832.

Tests used:
Experiment in all cases: relative viability (nuclei count vs DMSO), 5 days (fraction); higher = more cells survive
Adavosertib + Foretinib = compound: C=CCn1c(=O)c2cnc(Nc3ccc(N4CCN(C)CC4)cc3)nc2n1-c1cccc(C(C)(C)O)n1 [Adavosertib] + COc1cc2c(Oc3ccc(NC(=O)C4(C(=O)Nc5ccc(F)cc5)CC4)cc3F)ccnc2cc1OCCCN1CCOCC1 [Foretinib] (partner 0.25 µM)
Summary of the method: (§1)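 Relative viability was taken as the ratio of nuclei in treated wells to nuclei in vehicle wells. Lung cancer cell lines in 1536-well plates received compounds by pin tool one day after seeding, either one drug alone or a fixed anchor-drug dose plus five library-drug doses (not always all listed) in √10 steps. Nuclei were counted on 4× images after 5 days of treatment, and values are medians of duplicate plates.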

Adavosertib + Crizotinib = compound: C=CCn1c(=O)c2cnc(Nc3ccc(N4CCN(C)CC4)cc3)nc2n1-c1cccc(C(C)(C)O)n1 [Adavosertib] + C[C@@H](Oc1cc(-c2cnn(C3CCNCC3)c2)cnc1N)c1c(Cl)ccc(F)c1Cl [Crizotinib] (partner 1 µM)
Summary of the method: as §1

Nelarabine + Trametinib = compound: COc1nc(N)nc2c1ncn2[C@@H]1O[C@H](CO)[C@@H](O)[C@@H]1O [Nelarabine] + CC(=O)Nc1cccc(-n2c(=O)n(C3CC3)c(=O)c3c(Nc4ccc(I)cc4F)n(C)c(=O)c(C)c32)c1 [Trametinib] (partner 0.02 µM)
Summary of the method: as §1

Nelarabine + Pictilisib = compound: COc1nc(N)nc2c1ncn2[C@@H]1O[C@H](CO)[C@@H](O)[C@@H]1O [Nelarabine] + CS(=O)(=O)N1CCN(Cc2cc3nc(-c4cccc5[nH]ncc45)nc(N4CCOCC4)c3s2)CC1 [Pictilisib] (partner 1 µM)
Summary of the method: as §1

| Cell Line | relative viability (Adavosertib + Foretinib; first compound 0.01 µM) | relative viability (Adavosertib + Foretinib; first compound 0.03162 µM) | relative viability (Adavosertib + Foretinib; first compound 0.1 µM) | relative viability (Adavosertib + Foretinib; first compound 0.3162 µM) | relative viability (Adavosertib + Crizotinib; first compound 0.01 µM) | relative viability (Adavosertib + Crizotinib; first compound 0.03162 µM) | relative viability (Adavosertib + Crizotinib; first compound 0.1 µM) | relative viability (Adavosertib + Crizotinib; first compound 0.3162 µM) | relative viability (Nelarabine + Trametinib; first compound 0.01 µM) | relative viability (Nelarabine + Trametinib; first compound 0.03162 µM) | relative viability (Nelarabine + Trametinib; first compound 0.1 µM) | relative viability (Nelarabine + Trametinib; first compound 0.3162 µM) | relative viability (Nelarabine + Trametinib; first compound 1 µM) | relative viability (Nelarabine + Pictilisib; first compound 0.01 µM) | relative viability (Nelarabine + Pictilisib; first compound 0.03162 µM) | relative viability (Nelarabine + Pictilisib; first compound 0.1 µM) | relative viability (Nelarabine + Pictilisib; first compound 0.3162 µM) | relative viability (Nelarabine + Pictilisib; first compound 1 µM) |
| --- | --- | --- | --- | --- | --- | --- | --- | --- | --- | --- | --- | --- | --- | --- | --- | --- | --- | --- |
| NCI-H1355 | 1.01 | 1.02 | 0.975 | 0.946 | 1.04 | 0.985 | 1.04 | 0.908 | 0.451 | 0.343 | 0.43 | 0.346 | 0.477 | 0.484 | 0.366 | 0.335 | 0.465 | 0.478 |
| SK-MES-1 | 1.02 | 0.924 | 0.866 | 0.731 | 0.92 | 1.02 | 0.983 | 0.791 | 0.56 | 0.567 | 0.57 | 0.555 | 0.615 | 0.34 | 0.318 | 0.331 | 0.358 | 0.373 |
| NCI-H1755 | 0.881 | 0.893 | 0.912 | 0.918 | 0.885 | 0.882 | 0.911 | 0.739 | 0.852 | 0.777 | 0.753 | 0.692 | 0.836 | 0.488 | 0.429 | 0.507 | 0.429 | 0.522 |
| NCI-H650 | 1.06 | 1.01 | 1.06 | 0.889 | 0.706 | 0.648 | 0.692 | 0.609 | 1.05 | 0.805 | 0.922 | 1.01 | 1.06 | 1.05 | 0.789 | 0.762 | 0.917 | 1.04 |
| COR-L 105 | 0.781 | 0.872 | 1.24 | 0.925 | 0.746 | 0.836 | 0.795 | 0.747 | 0.351 | 0.398 | 0.448 | 0.383 | 0.482 | 0.341 | 0.4 | 0.352 | 0.424 | 0.39 |
| BEN | 0.523 | 0.682 | 0.566 | 0.695 | 0.985 | 0.998 | 0.825 | 0.873 | 1.17 | 0.91 | 1.01 | 1.05 | 1.31 | 0.67 | 0.596 | 0.605 | 0.607 | 0.641 |
| NCI-H322M | 0.886 | 0.978 | 0.821 | 0.517 | – | 0.982 | 0.834 | 0.743 | 0.547 | 0.505 | 0.383 | 0.402 | 0.511 | 0.505 | 0.523 | 0.433 | 0.568 | 0.542 |
| HCC-366 | 0.96 | 0.935 | 0.924 | 1.04 | 0.498 | 0.568 | 0.701 | 0.644 | 0.503 | 0.37 | 0.279 | 0.466 | 0.327 | 0.165 | 0.122 | 0.152 | 0.196 | 0.132 |
| NCI-H596 | 1.01 | 1.03 | 0.87 | 0.755 | 1.04 | 1.07 | 1.11 | 1.03 | 0.912 | 0.861 | 0.783 | 0.907 | 0.834 | 0.402 | 0.445 | 0.399 | 0.376 | 0.446 |
| EPLC-272H | 0.674 | 0.681 | 0.591 | 0.247 | 1.01 | 1.03 | 0.797 | 0.652 | 0.293 | 0.307 | 0.317 | 0.274 | 0.293 | 0.337 | 0.269 | 0.315 | 0.302 | 0.298 |
| NCI-H647 | 1.15 | 1.33 | 1.04 | 1.12 | 1.2 | 1.08 | 0.967 | 0.593 | 0.584 | 0.423 | 0.537 | 0.548 | 0.502 | 0.475 | 0.363 | 0.492 | 0.445 | 0.37 |
| NCI-H2009 | 1.17 | 1.21 | 1.26 | 1.2 | 0.995 | 1.05 | 1.03 | 1.04 | 0.28 | 0.224 | 0.215 | 0.287 | 0.266 | 1.31 | 0.917 | 0.841 | 1.03 | 0.93 |
| NCI-H2228 | 0.837 | 1.15 | 0.686 | 0.472 | 0.391 | 0.458 | 0.615 | 0.3 | 0.575 | 0.469 | 0.29 | 0.55 | 0.668 | 0.275 | 0.235 | – | 0.452 | 0.268 |
| LK-2 | 1.16 | 1.21 | 1.64 | 1.14 | 0.278 | 0.249 | 0.188 | 0.224 | 0.903 | 0.474 | 0.795 | 0.956 | 0.86 | 0.68 | – | 0.503 | 0.436 | 0.651 |
| NCI-H520 | 0.784 | 0.81 | 0.743 | 0.703 | 0.925 | 0.83 | 0.94 | 0.579 | 0.817 | 0.599 | 0.757 | 0.903 | 0.697 | 0.387 | 0.256 | 0.345 | 0.322 | 0.314 |
| CAL-12T | 1.12 | 1.09 | 1.16 | 1.09 | 0.935 | 0.592 | 0.776 | 0.509 | 0.351 | 0.314 | 0.404 | 0.352 | 0.347 | 0.393 | 0.642 | 0.365 | 0.494 | 0.423 |
| NCI-H460 | 1.05 | 0.933 | 1.1 | 0.994 | 0.929 | 0.822 | 1.11 | 0.627 | 0.124 | 0.213 | 0.0809 | 0.259 | 0.164 | 0.408 | 0.431 | 0.379 | 0.407 | 0.337 |
| NCI-H1944 | 0.869 | 0.9 | 0.842 | 0.717 | 1.14 | 1.11 | 1.17 | 1.13 | 0.448 | 0.443 | 0.401 | 0.388 | 0.376 | 0.369 | 0.322 | 0.339 | 0.399 | 0.366 |
| NCI-H1437 | 1.2 | 1.35 | 1.27 | 1.25 | 1 | 0.973 | 1.04 | 0.922 | 0.637 | 0.582 | 0.484 | 0.64 | 0.581 | 0.465 | 0.356 | 0.373 | 0.426 | 0.47 |
| NCI-H2087 | 1.22 | 1.11 | 1.37 | 1.06 | 0.911 | 0.96 | 1.03 | 0.896 | 0.181 | 0.167 | 0.196 | 0.245 | 0.202 | 0.961 | 0.975 | 0.99 | 1.22 | 1.02 |
| LU99A | 0.86 | 0.779 | 0.771 | 0.579 | 0.529 | 0.584 | 0.561 | 0.461 | 0.548 | 0.552 | 0.554 | 0.561 | 0.599 | 0.302 | 0.269 | 0.327 | 0.321 | 0.299 |
| NCI-H1993 | 0.795 | 0.863 | 0.83 | 0.838 | 0.919 | 0.804 | 0.874 | 0.95 | 0.531 | 0.48 | 0.479 | 0.487 | 0.588 | 0.718 | 0.81 | 0.894 | 0.779 | 0.899 |
| NCI-H2347 | 0.829 | 0.926 | 0.697 | 0.989 | 0.72 | 0.778 | 0.772 | 0.699 | 0.338 | 0.3 | 0.307 | 0.304 | 0.27 | 0.555 | 0.303 | 0.766 | 0.726 | 0.606 |
| NCI-H1734 | 0.954 | 0.831 | 0.82 | 0.759 | 0.817 | 0.772 | 0.82 | 0.695 | 0.829 | 0.615 | 0.666 | 0.666 | 0.627 | 0.561 | 0.538 | 0.516 | 0.479 | 0.452 |
| LCLC-97TM1 | 0.847 | 0.906 | 0.994 | 0.881 | – | 0.501 | 0.357 | 0.147 | – | – | 0.189 | 0.203 | 0.224 | 0.196 | 0.202 | 0.152 | 0.248 | 0.22 |
| HOP-62 | 1.09 | 1.23 | 1.15 | 1.34 | 0.986 | 0.905 | 1.04 | 0.955 | 0.47 | 0.516 | 0.369 | 0.36 | 0.408 | 0.833 | 0.743 | 0.815 | 0.574 | 0.706 |
| NCI-H2405 | 1.05 | 1.06 | 1.1 | 1.13 | 0.804 | 0.875 | 0.872 | 0.879 | 0.642 | 0.612 | 0.528 | 0.677 | 0.643 | 0.532 | 0.464 | 0.382 | 0.49 | 0.492 |
| HCC-78 | 0.54 | 0.628 | 0.587 | 0.628 | 0.34 | 0.351 | 0.339 | 0.347 | 1.19 | 0.74 | – | 0.853 | 0.96 | 0.156 | 0.215 | – | 0.261 | 0.231 |
| SK-LU-1 | 0.773 | 0.831 | 0.563 | 0.311 | 0.837 | 0.844 | 0.553 | 0.325 | 0.523 | 0.42 | 0.421 | 0.558 | 0.514 | 0.684 | 0.396 | 0.546 | 0.606 | 0.613 |
| NCI-H1915 | 1.14 | 1.03 | 1.2 | 1.14 | 0.941 | 0.812 | 0.981 | 1 | 0.328 | 0.318 | 0.284 | 0.299 | 0.305 | 1.08 | 0.939 | 1.04 | 0.959 | 1.01 |
